Literature values as cited in patent publication US6544543B1, “Periodic constriction of vessels to treat ischemic tissue” (Advanced Cardiovascular Systems, Inc., priority 2000, dated 2003).

What was measured:
[1] = avidin tetramer binds four biotin molecules in solution, noncovalent interaction
[2] = avidin tetramer-biotin noncovalent interaction

avidin: polypeptide of at least 128 amino acid residues, forms a tetramer, binds four biotin molecules; member of the affinity pair
binding constant [1]: about 10^15 M^−1
half-life in vivo [2]: about 89 days
